The text below walks through data of patent US8008298B2, “Pyrrolopyrazine kinase inhibitors” (Roche Palo Alto, priority 2008, dated 2011).

On to `COc1cc(OC)cc(-c2cnc3[nH]cc(C(=O)C(C)(C)C)c3n2)c1` [Example 146, 1-[2-(3,5-Dimethoxy-phenyl)-5H-pyrrolo[2,3-b]pyrazin-7-yl]-2,2-dimethyl-propan-1-one], for which the melting point (as a rule, the temperature of the solid-liquid transition) is 206.9 to 207.7 °C.

In the case of `COc1cc(-c2cnc3[nH]cc(C(=O)C4(C)CCCC4)c3n2)cc(OC)c1OC` [Example 147, (1-Methyl-cyclopentyl)-[2-(3,4,5-trimethoxy-phenyl)-5H-pyrrolo[2,3-b]pyrazin-7-yl]-methanone], the melting point is 244 to 246 °C.

For `CC(C)(C)C(=O)c1c[nH]c2ncc(-c3cccc(CCO)c3)nc12` [Example 148, 1-{2-[3-(2-Hydroxy-ethyl)-phenyl]-5H-pyrrolo[2,3-b]pyrazin-7-yl}-2,2-dimethyl-propan-1-one], the melting point was in the range of 202 to 203 °C.

`CC(C)(C)C(=O)c1c[nH]c2ncc(-c3cccc(CN)c3)nc12` [Example 149, 1-[2-(3-Aminomethyl-phenyl)-5H-pyrrolo[2,3-b]pyrazin-7-yl]-2,2-dimethyl-propan-1-one]: the melting point was in the range of 176 to 178 °C.

The molecule `CC(C)(C)C(=O)c1c[nH]c2ncc(-c3cccc(CN4CCCCC4)c3)nc12` [Example 150, 2,2-Dimethyl-1-[2-(3-piperidin-1-ylmethyl-phenyl)-5H-pyrrolo[2,3-b]pyrazin-7-yl]-propan-1-one] gave a melting point of 176 to 177 °C.

For the molecule `CC(C)(C)C(=O)c1c[nH]c2ncc(-c3ccccc3O)nc12` [Example 152, 1-[2-(2-Hydroxy-phenyl)-5H-pyrrolo[2,3-b]pyrazin-7-yl]-2,2-dimethyl-propan-1-one], the melting point is 282 to 283 °C.

The molecule `CC1(C(=O)c2c[nH]c3ncc(-c4cccc(N5CCOCC5)c4)nc23)CCCCC1` [Example 153, (1-Methyl-cyclohexyl)-[2-(3-morpholin-4-yl-phenyl)-5H-pyrrolo[2,3-b]pyrazin-7-yl]-methanone] had a melting point of 208 to 209 °C.

As for `Cc1nnc(-c2cccc(-c3cnc4[nH]cc(C(=O)C5(C)CCCCC5)c4n3)c2)o1` [Example 155, (1-Methyl-cyclohexyl)-{2-[3-(5-methyl-[1,3,4]oxadiazol-2-yl)-phenyl]-5H-pyrrolo[2,3-b]pyrazin-7-yl}-methanone], the melting point lay within 234 to 236 °C.

Take `CC1(C(=O)c2c[nH]c3ncc(-c4cccc(CCCO)c4)nc23)CCCCC1` [Example 156, {2-[3-(3-Hydroxy-propyl)-phenyl]-5H-pyrrolo[2,3-b]pyrazin-7-yl}-(1-methyl-cyclohexyl)-methanone]: the melting point lay within 80 to 83 °C.

In turn, `COc1cccc(-c2cnc3[nH]cc(C(=O)C4(C)CCCCC4)c3n2)c1` [Example 157, [2-(3-Methoxy-phenyl)-5H-pyrrolo[2,3-b]pyrazin-7-yl]-(1-methyl-cyclohexyl)-methanone] registered a melting point of 173 to 175 °C.

`CN(C)c1ccc(-c2cnc3[nH]cc(C(=O)C4(C)CCCCC4)c3n2)cc1` [Example 158, [2-(4-Dimethylamino-phenyl)-5H-pyrrolo[2,3-b]pyrazin-7-yl]-(1-methyl-cyclohexyl)-methanone] came in with a melting point of 272 to 274 °C.

`CC1(C(=O)c2c[nH]c3ncc(-c4cccc(N5CCCC5)c4)nc23)CCCCCC1` [Example 160, (1-Methyl-cycloheptyl)-[2-(3-pyrrolidin-1-yl-phenyl)-5H-pyrrolo[2,3-b]pyrazin-7-yl]-methanone] yielded a melting point of 192 to 193 °C.

The molecule `O=C(c1c[nH]c2ncc(Br)nc12)C12CC3CC(CC(C3)C1)C2` [Example 161, Adamantan-1-yl-(2-bromo-5H-pyrrolo[2,3-b]pyrazin-7-yl)-methanone] had a melting point of 279 to 280 °C.

Molecule `COc1cc(-c2cnc3[nH]cc(C(=O)C45CC6CC(CC(C6)C4)C5)c3n2)cc(OC)c1OC` [Example 162, Adamantan-1-yl-[2-(3,4,5-trimethoxy-phenyl)-5H-pyrrolo[2,3-b]pyrazin-7-yl]-methanone] gave a melting point of 267 to 268 °C.

In turn, `COc1cc(-c2cnc3[nH]cc(C(=O)C(C)(C)CO)c3n2)cc(OC)c1OC` [Example 165, 3-hydroxy-2,2-dimethyl-1-[2-(3,4,5-trimethoxy-phenyl)-5H-pyrrolo[2,3-b]pyrazin-7-yl]-propan-1-one] had a melting point of 227 to 229 °C.

In the case of `CC1(C(=O)c2c[nH]c3ncc(Br)nc23)CCCC1` [Example 166, (2-Bromo-5H-pyrrolo[2,3-b]pyrazin-7-yl)-(1-methyl-cyclopentyl)-methanone], the melting point fell in the range of 206.9 to 207.9 °C.

The molecule `CC1(C(=O)c2c[nH]c3ncc(-c4cccc(N5CCCC5)c4)nc23)CCCC1` [Example 167, (1-Methyl-cyclopentyl)-[2-(3-pyrrolidin-1-yl-phenyl)-5H-pyrrolo[2,3-b]pyrazin-7-yl]-methanone] showed a melting point of 242 to 243 °C.

`COc1cc(-c2cnc3[nH]cc(C(=O)C4(C)CCCC(C)C4)c3n2)cc(OC)c1OC` (stereo not shown) [Example 169, (1,3-Dimethyl-cyclohexyl)-[2-(3,4,5-trimethoxy-phenyl)-5H-pyrrolo[2,3-b]pyrazin-7-yl]-methanone] registered a melting point of 229 to 231 °C.

`CN1CCN(c2ccc(-c3cnc4[nH]cc(C(=O)C5(C)CCCCC5)c4n3)cc2)CC1` [Example 170, (1-Methyl-cyclohexyl)-{2-[4-(4-methyl-piperazin-1-yl)-phenyl]-5H-pyrrolo[2,3-b]pyrazin-7-yl}-methanone] came in with a melting point of 225 to 226 °C.

`CNc1ccc(-c2cnc3[nH]cc(C(=O)C4(C)CCCCC4)c3n2)cc1` [Example 171, [2-(4-Methylamino-phenyl)-5H-pyrrolo[2,3-b]pyrazin-7-yl]-(1-methyl-cyclohexyl)-methanone] gave a melting point of 273 to 275 °C.

As for `CC1(C(=O)c2c[nH]c3ncc(-c4ccc(N5CCOCC5)cc4)nc23)CCCCC1` [Example 172, (1-Methyl-cyclohexyl)-[2-(4-morpholin-4-yl-phenyl)-5H-pyrrolo[2,3-b]pyrazin-7-yl]-methanone], the melting point was 233 to 235 °C.

As to `CCN(CC)c1ccc(-c2cnc3[nH]cc(C(=O)C4(C)CCCCC4)c3n2)cc1` [Example 173, [2-(4-Diethylamino-phenyl)-5H-pyrrolo[2,3-b]pyrazin-7-yl]-(1-methyl-cyclohexyl)-methanone], the melting point lay in the range of 211 to 213 °C.

For the molecule `CC1(C(=O)c2c[nH]c3ncc(-c4ccc(N5CCCCC5)cc4)nc23)CCCCC1` [Example 174, (1-Methyl-cyclohexyl)-[2-(4-piperidin-1-yl-phenyl)-5H-pyrrolo[2,3-b]pyrazin-7-yl]-methanone], the melting point lay within 234 to 236 °C.

The molecule `CC(C)(C)OC(=O)N1CCN(c2cccc(-c3cnc4[nH]cc(C(=O)C5(C)CCCCC5)c4n3)c2)CC1` [Example 175, 4-{3-[7-(1-Methyl-cyclohexanecarbonyl)-5H-pyrrolo[2,3-b]pyrazin-2-yl]-phenyl}-piperazine-1-carboxylic acid tert-butyl ester] came in with a melting point of 212 to 213 °C.

Regarding `CC1(C(=O)c2c[nH]c3ncc(-c4cccc(N5CCN(C(=O)CC#N)CC5)c4)nc23)CCCCC1` [Example 178, 3-(4-{3-[7-(1-Methyl-cyclohexanecarbonyl)-5H-pyrrolo[2,3-b]pyrazin-2-yl]-phenyl}-piperazin-1-yl)-3-oxo-propionitrile], the melting point was in the range of 214 to 216 °C.

The molecule `CC1(C(=O)c2c[nH]c3ncc(-c4cccc(N5CCN(C(=O)C6CCNCC6)CC5)c4)nc23)CCCCC1` [Example 180, (1-Methyl-cyclohexyl)-(2-{3-[4-(piperidine-4-carbonyl)-piperazin-1-yl]-phenyl}-5H-pyrrolo[2,3-b]pyrazin-7-yl)-methanone] gave a melting point greater than 300 °C.

For `CC1(C(=O)c2c[nH]c3ncc(-c4cccc(N5CCN(S(C)(=O)=O)CC5)c4)nc23)CCCCC1` [Example 181, {2-[3-(4-Methanesulfonyl-piperazin-1-yl)-phenyl]-5H-pyrrolo[2,3-b]pyrazin-7-yl}-(1-methyl-cyclohexyl)-methanone], the melting point was in the range of 230 to 231 °C.

The molecule `CC1(C(=O)c2c[nH]c3ncc(-c4cccc(N5CCN(S(N)(=O)=O)CC5)c4)nc23)CCCCC1` [Example 183, 4-{3-[7-(1-Methyl-cyclohexanecarbonyl)-5H-pyrrolo[2,3-b]pyrazin-2-yl]-phenyl}-piperazine-1-sulfonic acid amide] registered a melting point of 233 to 235 °C.

`CC1(C(=O)c2c[nH]c3ncc(-c4ccc(N5CCNCC5)cc4)nc23)CCCCC1` [Example 185, (1-Methyl-cyclohexyl)-[2-(4-piperazin-1-yl-phenyl)-5H-pyrrolo[2,3-b]pyrazin-7-yl]-methanone] returned a melting point of 214 to 216 °C.

In turn, `CC(=O)N1CCN(c2ccc(-c3cnc4[nH]cc(C(=O)C5(C)CCCCC5)c4n3)cc2)CC1` [Example 186, 1-(4-{4-[7-(1-Methyl-cyclohexanecarbonyl)-5H-pyrrolo[2,3-b]pyrazin-2-yl]-phenyl}-piperazin-1-yl)-ethanone] registered a melting point of 278 to 284.9 °C.

Molecule `COc1cc(-c2cnc3[nH]cc(C(=O)C4(C)CCC(O)CC4)c3n2)cc(OC)c1OC` (stereo not shown) [Example 191, (4-Hydroxy-1-methyl-cyclohexyl)-[2-(3,4,5-trimethoxy-phenyl)-5H-pyrrolo[2,3-b]pyrazin-7-yl]-methanone] came in with a melting point of 242 to 244 °C.

Take `CN(C)C1CCN(c2cccc(-c3cnc4[nH]cc(C(=O)C(C)(C)C)c4n3)c2)C1` (stereo not shown) [Example 202, 1-{2-[3-(3-Dimethylamino-pyrrolidin-1-yl)-phenyl]-5H-pyrrolo[2,3-b]pyrazin-7-yl}-2,2-dimethyl-propan-1-one]: the melting point lay within 204 to 206 °C.

Turning to `CCNC1CCN(c2cccc(-c3cnc4[nH]cc(C(=O)C(C)(C)C)c4n3)c2)C1` (stereo not shown) [Example 208, 1-{2-[3-(3-Ethylamino-pyrrolidin-1-yl)-phenyl]-5H-pyrrolo[2,3-b]pyrazin-7-yl}-2,2-dimethyl-propan-1-one], the melting point is 200 to 202 °C.

Consider `COC(=O)C1(C)CCN(c2cccc(-c3cnc4[nH]cc(C(=O)C(C)(C)C)c4n3)c2)C1` (stereo not shown) [Example 209, 1-{3-[7-(2,2-Dimethyl-propionyl)-5H-pyrrolo[2,3-b]pyrazin-2-yl]-phenyl}-3-methyl-pyrrolidine-3-carboxylic acid methyl ester], for which the melting point lay in the range of 198 to 200 °C.
